The numbers were not newly measured in US20250357519A1, “APPLICATIONS OF O2-INSENSITIVE FORMATE DEHYDROGENASE” (UNIVERSITY OF MARYLAND, BALTIMORE, priority 2022, published 2025), which cites them from elsewhere.

Like-named read-outs stand apart in the source and are kept apart here.

Data set [1] has as its system Desulfovibrio alaskensis (Da) W-FDH1, wild-type natively-purified (W-FDH1^WT). The note with it: pH 8.0, 37 °C, 7.5 mM BV, 35 nM enzyme; Mota (2011); cited from earlier work.
The target in data set [2] is T1, Desulfovibrio vulgaris Hildenborough (DvH) W-FDH1, recombinant (W-FDH1^REC), large subunit DVU0587 SEQ ID NO: 29, small subunit DVU0588 SEQ ID NO: 30 (Nitratidesulfovibrio vulgaris, UniProt Q72EJ1).
T1 construct: mature large subunit lacks Tat signal peptide; literature data of Oliveira et al. reanalysed
T1 sequence (Q72EJ1 36-1005): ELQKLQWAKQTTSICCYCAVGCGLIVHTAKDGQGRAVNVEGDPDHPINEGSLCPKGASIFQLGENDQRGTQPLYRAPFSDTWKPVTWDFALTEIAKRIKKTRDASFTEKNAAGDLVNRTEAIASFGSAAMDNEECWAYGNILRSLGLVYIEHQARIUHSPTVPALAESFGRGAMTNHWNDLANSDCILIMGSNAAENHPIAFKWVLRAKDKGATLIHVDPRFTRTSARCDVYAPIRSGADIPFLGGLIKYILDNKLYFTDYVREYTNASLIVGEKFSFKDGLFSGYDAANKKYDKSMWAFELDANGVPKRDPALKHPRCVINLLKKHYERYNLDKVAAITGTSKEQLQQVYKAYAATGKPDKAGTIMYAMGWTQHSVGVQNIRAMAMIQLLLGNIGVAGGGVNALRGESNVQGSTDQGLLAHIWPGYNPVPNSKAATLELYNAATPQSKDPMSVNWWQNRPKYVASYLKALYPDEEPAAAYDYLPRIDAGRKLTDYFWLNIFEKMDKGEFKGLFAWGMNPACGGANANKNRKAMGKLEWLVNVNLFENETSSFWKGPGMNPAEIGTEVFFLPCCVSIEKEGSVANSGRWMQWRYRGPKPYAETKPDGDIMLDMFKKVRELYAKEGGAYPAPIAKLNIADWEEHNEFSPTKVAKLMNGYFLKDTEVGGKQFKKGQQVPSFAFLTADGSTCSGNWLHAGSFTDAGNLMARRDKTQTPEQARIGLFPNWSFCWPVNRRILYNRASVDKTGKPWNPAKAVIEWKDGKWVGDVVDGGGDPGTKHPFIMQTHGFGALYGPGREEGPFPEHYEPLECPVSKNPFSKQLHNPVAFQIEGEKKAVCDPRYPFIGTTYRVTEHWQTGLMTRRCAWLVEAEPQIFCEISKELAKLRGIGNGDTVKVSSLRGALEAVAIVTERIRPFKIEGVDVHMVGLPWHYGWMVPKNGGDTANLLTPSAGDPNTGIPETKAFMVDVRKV
T1 sequence (Q72EJ0 1-236 partner): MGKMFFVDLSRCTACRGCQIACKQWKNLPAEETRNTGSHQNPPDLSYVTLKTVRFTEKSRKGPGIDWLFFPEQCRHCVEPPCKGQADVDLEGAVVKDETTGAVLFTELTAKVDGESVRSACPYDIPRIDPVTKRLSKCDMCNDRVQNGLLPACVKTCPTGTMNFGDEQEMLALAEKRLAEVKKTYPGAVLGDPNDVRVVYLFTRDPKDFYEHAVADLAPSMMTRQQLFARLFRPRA
The note with it: cited from earlier work.

Data set [3] deals with Desulfovibrio vulgaris Hildenborough (DvH) W-FDH1, wild-type natively-purified (W-FDH1^WT), large subunit DVU0587 SEQ ID NO: 29, small subunit DVU0588 SEQ ID …. The note with it: pH 7.6, RT, 2 mM BV, cited from earlier work.
[4] abbreviates: pH 7.6, RT, 2 mM BV, 1.4 nM enzyme, Oliveira et al (2020).
Where [5] appears, read: 0.0124 nM enzyme, Da Silva et al (2011).

Regarding `O=CO` [formate], the Km was 10 µM in data set [1]; 16.9 ± 2.8 µM in data set [2] (setting [4]); 17 µM in data set [2] (value reported by Oliveira et al., as cited in text, BV); 1 µM in data set [3] (setting [5]). For the same compound, the kcat is 241 s⁻¹ in data set [1]; 1144 s⁻¹ in data set [2] (pH 7.6, RT, 2 mM BV, 1.4 nM enzyme, Alvarez-Malmagro et al (2021)); 1100 s⁻¹ in data set [2] (pH 7.6, RT, 2 mM BV, 1.4 nM enzyme, Miller et al (2018)); 1310 ± 50 s⁻¹ in data set [2] (setting [4]); 940 s⁻¹ in data set [2] (pH 7.6, RT, 2 mM BV, 1.4 nM enzyme, Szczesny et al (2019)); 3684 s⁻¹ in data set [3] (setting [5]). For the same compound, the kcat in data set [3] (1.4 nM enzyme, Oliveira et al (2020)) is 1104 ± 62 s⁻¹.
